# From US12319726B2, “Method for treating CD40-mediated diseases” (CASE WESTERN RESERVE UNIVERSITY, priority 2008, dated 2025)
# Where no end group is shown, it is not given here.
# Legend:
# [1] = tested on: human Müller cells; assay type: cell-based
# From the text: (§1) Peptide consisted of the TRAF2,3 binding site of CD40 that was made cell permeable by linking them to the TAT47-57 cell penetrating peptide. Peptides were synthesized using D-amino acids following reverse amino acid sequence (ri format). The sequences for the CD40-TRAF2,3 blocking peptide was —NH2-rrrqrrkkrgy ghlteqvhaatn-OH (SEQ ID NO: 49). The TAT47-57 sequence is underlined. The peptide contains a proline (p) to histidine (h) substitution (shown in italics) that enhances affinity to TRAF2. Control (scrambled) peptide consisted of NH2-rrrqrrkkrgy ntqalahtgevh-OH (SEQ ID NO: 50). The blocking peptide was also synthesized with Alexa Fluor 488 conjugated via maleimide coupling to an additional Cys in the N terminus. Peptides were manufactured by Biopeptide Co. (San Diego, CA) and were low in endotoxin and >98% pure by HPLC. Peptides were used at 1 μM in vitro experiments and 1 μg for in vivo studies unless otherwise stated. Peptides were not toxic to human Müller and retinal endothelial cells as assessed by alamarBlue cell viability assay (Invitrogen Corporation).
# (§2) Primary human retinal endothelial cells were obtained as described (9) and cultured in complete medium supplemented with endothelial cell growth supplement from bovine pituitary (15 μg/ml; Sigma Chemical, St Louis, MO) and insulin/transferrin/selenium (Sigma Chemical). Cell identity was confirmed by incorporation of acetylated low-density lipoprotein (>90%). Endothelial cells were used between passages 3 to 6. The human Müller cell line MIO M1 (gift from Dr. Gloria Limb; University College London, UK; >95% vimentin^+, CRALBP^+ and GFAP^−) was also used. Endothelial cells were incubated with multimeric human CD154 to induce CD40 stimulation (obtained from Dr. Richard Kornbluth, Multimeric Biotherapeutics Inc., La Jolla, CA) or with a non-functional CD154 mutant (T147N) as control.
# (§3) Peptides were tested as described using the mouse endothelial cells mHEVc that expresses a chimera of the extracellular domain of human CD40 and intracytoplasmic domain of mouse CD40 (hmCD40) with either a mutation that prevents recruitment of TRAF2,3 (hmCD40 ΔT2,3) or TRAF6 (hmCD40 ΔT6). These cells were transfected with pGL4.32luc2P/NF-κB-RE/Hygro vector (Promega Corporation, Madison, WI) encoding an NF-κB response element that drives the luciferase reporter gene luc2P (Photinus pyralis). Cells were pre-incubated with peptides for 3 hr. followed by stimulation with human CD154. Luciferase activity was assessed using a Steady-Glo luciferase assay system (Promega Corporation) and a luminometer. The effects of peptides on cell viability were examined using alamarBlue cell viability assay.
# [2] = tested on: human retinal endothelial cells; assay type: cell-based
# From the text: as §1, §2, §3
# [3] = tested on: retinas subjected to I/R; assay: Model of retinal ischemia/reperfusion (I/R), intravitreal peptide; assay type: in vivo, B6 mice
# Description: FIGS. 20(A-C) illustrate images and graphs showing ri CD40-TRAF2,3 blocking peptide protects against loss of ganglion cells and leukocyte infiltration in retinas subjected to I/R. One eye from each B6 and CD40^−/− mouse was subjected to I/R. Contralateral non-ischemic eye was used as control. Eyes subjected to I/R in B6 mice were treated intravitreously with or without ri control peptide, ri CD40-TRAF2,3 blocking peptide (both 1 μg) 30 min prior to increase in IOP. Eyes were collected 2 d after I/R. A marked decrease in the number of ganglion cells is observed in ischemic eyes from B6 treated with ri control peptide or vehicle (original magnification ×400). […] Arrowhead plus asterix identifies a PMN magnified in the inset (original magnification ×600). Scale bar, 50 μm. Number of ganglion cells per mm. Number of infiltrating leukocytes in the inner retina and vitreous per section. GCL=Ganglion cell layer; IPL=Inner plexiform layer; INL=Inner nuclear layer. OPL=Outer plexiform layer; ONL=Outer nuclear layer. Data shown represent Mean±SEM (9 mice per group). *P<0.05; **P<0.01; […].
# FIG. 21 illustrates graphs showing ri CD40-TRAF2,3 blocking peptide impairs upregulation of NOS2 and COX-2 in retinas subjected to I/R. One eye of each mouse was treated as above and subjected to I/R. Eyes were collected after 2 d. mRNA levels of NOS2 and COX-2 were assessed by quantitative real time PCR. One non-ischemic eye from a B6 mouse was given an arbitrary value of 1 and data are expressed as fold-increase compared to this animal. Data shown represent Mean±SEM (7-9 mice per group). ***P<0.001.
# FIGS. 22(A-B) illustrate graphs and images showing ri CD40-TRAF2,3 blocking peptide impairs upregulation of ICAM-1 and KC/CXCL1 in retinal endothelial cells from retinas subjected to I/R. One eye of each mouse was subjected to I/R. Eyes were collected after 2 d. mRNA levels of ICAM-1 and KC/CXCL1 were assessed by quantitative real time PCR. One non-ischemic eye from a B6 mouse was given an arbitrary value of 1 and data are expressed as fold-increase compared to this animal. Data shown represent Mean±SEM (7-9 mice per group). ***P<0.001. Retinal sections were incubated with Tomato Lectin (labels endothelial cells) plus either anti-ICAM-1 or anti-KC/CXCL1 Ab. Original magnification ×600. GCL=Ganglion cell layer; IPL=Inner plexiform layer; INL=Inner nuclear layer. Scale bar, 10 μm. 6 mice/group.
# FIG. 23 illustrates images showing ri CD40-TRAF2,3 blocking peptide impairs NOS2 and KC/CXCL1 upregulation in Müller cells from retinas subjected to I/R. Eyes from B6 mice were treated with control peptide or CD40-TRAF2,3 blocking peptide, subjected to I/R and collected after 2 d. Retinal sections were incubated with anti-Vimentin Ab (labels Müller cells) plus either anti-NOS2 or anti-KC/CXCL1 Ab. Protein expression at the level of Müller cells stalks. […]. Original magnification ×600. Scale bar, 10 μm. 6 mice/group.
# FIGS. 24(A-D) illustrate images and graphs showing ri CD40-TRAF2,3 blocking peptide protects against loss of ganglion neurons and inflammation when administered after retinal I/R. One eye from each B6 mouse was subjected to I/R. Non-ischemic eyes were used as controls. Eyes that were subjected to I/R received either ri control peptide or ri CD40-TRAF2,3 blocking peptide 90 min after increase in IOP. Eyes were collected 2 d after I/R. Administration of the blocking peptide protects against ganglion cell loss and infiltration by leukocytes (arrowhead). Original magnification ×400. Scale bar, 50 μm. Number of ganglion cells per mm. Number of leukocytes in the inner retina and vitreous per section. mRNA levels of ICAM-1, KC/CXCL1, NOS2 and COX-2 were assessed by quantitative real time PCR as above. Data shown represent Mean±SEM (7-9 mice per group). **P<0.01; ***P<0.001. GCL=Ganglion cell layer; IPL=Inner plexiform layer; INL=Inner nuclear layer. […]
# [4] = tested on: HAEC; assay: Viability of HAEC incubated with cell-permeable peptides; assay type: cell-based, human; settings: first generation cell-permeable peptides
# From the text: We used peptides that consisted of the amino acid sequence of the TRAF2,3 or the TRAF6 binding sites of CD40 fused a protein transduction domain derived from the Kaposi fibroblast growth factor to make the peptides cell-permeable, (SEQ ID NO: 1 or SEQ ID NO: 2, respectively). […] Thus, the results obtained with the blocking peptides were similar to those obtained with CD40 mutants.
# [5] = tested on: Human aortic endothelial cells (HAEC); assay: CD154-induced VCAM-1 upregulation in HAEC transduced with wild-type CD40 (FACS); assay type: cell-based; settings: second generation peptides (Tat MTD), 100 nM, p<0.02
# Description: FIGS. 2A-D are a series of graphs showing the induction of VCAM-1 (FIG. 2A), ICAM-1 (FIG. 2B), MCP-1 (FIG. 2C), and tissue factor (FIG. 2D) expression by TRAFs. Human aortic endothelial cells (HAEC) transduced with empty EGFP-encoding retroviral vector (MIEG3) or retroviral vector that encoded either wild type CD40 (wt CD40), CD40 with a mutation that prevents recruitment of TRAF2 and 3 (ΔT2, 3), recruitment of TRAF6 (ΔT6), or recruitment of TRAF2, 3, and 6 (ΔT2, 3, and 6) were incubated with or without CD154. VCAM-1, ICAM-1, and tissue factor were assessed by FACS on transduced (EGFP+) cells. cMFI=corrected Mean Fluorescence Intensity. MCP-1 was measured by ELISA (N=3).
# FIGS. 3A-B are a series of graphs showing the effects cell-permeable polypeptides that block CD40-TRAF interactions (T2,3BP and T6BP) on upregulation of VCAM-1 and MCP-1 in HAEC. HAEC were transduced with retroviral vectors encoding wild-type CD40 and incubated with or without CD154. HAEC were pre-treated with either control, TRAF2,3 blocking peptide (T2,3BP), or TRAF6 blocking peptide (T6BP) (200 μM) (N=2).
# FIG. 5 is a graph showing the effects of second generation TRAF2, 3 blocking peptide on VCAM-1 upregulation in HAEC.
# CD40 activates a variety of signaling cascades. […] Next, we determined if preventing the function of the TRAF2,3 binding site affects adhesion molecule upregulation. […]
# [6] = 1 μg intravitreal prior to I/R, 2 d, real time PCR
# [7] = prior to I/R, 2 d, immunohistochemistry
molecule,measurement,setting,value
"CC(C)C[C@@H](NC(=O)[C@@H](C)NC(=O)[C@@H](CCC(N)=O)NC(=O)[C@H](NC(=O)[C@@H](CC(N)=O)NC(=O)[C@@H](Cc1ccc(O)cc1)NC(=O)CNC(=O)[C@@H](CCCNC(=N)N)NC(=O)[C@@H](CCCCN)NC(=O)[C@@H](CCCCN)NC(=O)[C@@H](CCCNC(=N)N)NC(=O)[C@@H](CCCNC(=N)N)NC(=O)[C@@H](CCC(N)=O)NC(=O)[C@@H](CCCNC(=N)N)NC(=O)[C@@H](CCCNC(=N)N)NC(=O)[C@H](N)CCCNC(=N)N)[C@H](C)O)C(=O)N[C@H](C)C(=O)N[C@H](Cc1c[nH]cn1)C(=O)N[C@@H](C(=O)NCC(=O)N[C@H](CCC(=O)O)C(=O)N[C@@H](C(=O)N[C@H](Cc1c[nH]cn1)C(=O)O)C(C)C)[C@H](C)O [ri control peptide, NH2-rrrqrrkkrgy ntqalahtgevh-OH, reference compound]",toxicity (alamarBlue cell viability assay),[1],not toxic
same,toxicity (alamarBlue cell viability assay),[2],not toxic
same,COX-2 mRNA levels in retina,[3]; [6],upregulated
same,ICAM-1 mRNA levels in retina,[3]; [6],marked upregulation
same,KC/CXCL1 mRNA levels in retina,[3]; [6],marked upregulation
same,NOS2 mRNA levels in retina,[3]; [6],upregulated
same,PMN infiltration in the inner retina and vitreous,"[3]; 1 μg intravitreal prior to I/R, 2 d after I/R",developed PMN infiltration
same,loss of ganglion cells,"[3]; 1 μg intravitreal prior to I/R, eyes collected 2 d after I/R",not altered
same,expression of ICAM-1 in retinal endothelial cells,[3]; [7],increased
same,expression of KC/CXCL1 in Müller cells,[3]; [7],increased KC/CXCL1 expression
same,expression of KC/CXCL1 in retinal endothelial cells,[3]; [7],increased
same,expression of NOS2 in Müller cells,[3]; [7],NOS2 upregulation
"AAVALLPAVLLALLAPAPHPKQEPQEIDFPDD [SEQ ID NO: 2, AAVALLPAVLLALLAP APHPKQEPQEIDFPDD]",viability of HAEC,[4],did not affect viability
"AAVALLPAVLLALLAPSNTAAPVQETLHG [SEQ ID NO: 1, AAVALLPAVLLALLAP SNTAAPVQETLHG]",viability of HAEC,[4],did not affect viability
KQEPQEIDFPDD YGRKKRRQRRR [SEQ ID NO: 18],inhibition of upregulation of VCAM-1 triggered by CD154,[5],60%
NTAAHVQETLHG YGRKKRRQRRR [SEQ ID NO: 13],inhibition of upregulation of VCAM-1 triggered by CD154,[5],60%
